Holding throughout (type): functional, cell-based
The subject of experiment [1] is HeLa. In words: Antiproliferative activity against human HeLa cells assessed as reduction in cell optical density incubated for 48 hrs by MTT assay.
Another experiment relates to HepG2. In words: Antiproliferative activity against human HepG2 cells assessed as reduction in cell optical density incubated for 48 hrs by MTT assay. To be noted: HepG2, 48 h.
The next experiment relates to MCF7. Put plainly: Antiproliferative activity against human MCF7 cells assessed as reduction in cell optical density incubated for 48 hrs by MTT assay. The following applies: MCF7, 48 h. For orientation: Formazan colour is commonly taken as a measure of viable cells.
The subject of the next experiment is BGC-823. In words: Antiproliferative activity against human BGC-823 cells assessed as reduction in cell optical density incubated for 48 hrs by MTT assay. To be noted: BGC-823, 48 h.
The subject of a further experiment is HCT-116. Put plainly: Antiproliferative activity against human HCT-116 cells assessed as reduction in cell optical density incubated for 48 hrs by MTT assay. To be noted: HCT-116, 48 h.
The subject of another experiment is A549. Put plainly: Antiproliferative activity against human A549 cells assessed as reduction in cell optical density incubated for 48 hrs by MTT assay. To be noted: A549, 48 h.
The subject of experiment [2] is HeLa. Put plainly: Induction of autophagy in human HeLa cells transfected with mRFP-GFP-LC3 plasmid assessed as stable RFP fluorescence at 30 uM incubated for 24 hrs by DAPI staining based fluorescence confocal microscopic analysis.
For the next experiment, the system named is Ca-Ski. Put plainly: Induction of ferroptosis in human Ca Ski cells assessed as increase in lipid ROS level by measuring rightward shift in fluorescence intensity at 6 uM measured after 12 hrs by C11-BODIPY-581/591 staining based flow cytometric analysis. Background: A flow cytometer gives signals particle by particle.
For experiment [3], the system named is HeLa. In words: Induction of ferroptosis in human HeLa cells assessed as increase in lipid ROS level by measuring rightward shift in fluorescence intensity at 8 uM measured after 12 hrs by C11-BODIPY-581/591 staining based flow cytometric analysis.

The text below walks through data of ChEMBL document CHEMBL6115007, “Synthesis and in vitro and in vivo evaluation of novel bivalent quinolines as antitumor agents via targeting autophagy in cervical cancer” (Eur J Med Chem, 2025).

Structures are written as SMILES. Calls of active or inactive are those of the source. The rule behind the calls is not given here. A value given as a limit tells only on which side of the number the result lay.

By IC50 is commonly meant the concentration that inhibits the measured activity by half. Take `Fc1cccc(Nc2ccnc3cc(OCCCCOc4ccc5c(Nc6cccc(F)c6)ccnc5c4)ccc23)c1`: the IC50 in the experiment with HeLa [1] came out at 37.3 µM; with HepG2, 10.5 µM; with MCF7, 6.79 µM; with BGC-823 it was 18.7 µM; with HCT-116, 17.1 µM; with A549, 13.3 µM.

As for `CO[C@H]1C[C@@H]2CC[C@@H](C)[C@@](O)(O2)C(=O)C(=O)N2CCCC[C@H]2C(=O)O[C@H]([C@H](C)C[C@@H]2CC[C@@H](O)[C@H](OC)C2)CC(=O)[C@H](C)/C=C(\C)[C@@H](O)[C@@H](OC)C(=O)[C@H](C)C[C@H](C)/C=C/C=C/C=C/1C`, in the experiment with HeLa [2], the outcome was Active.

`Fc1cccc(Nc2ccnc3cc(OCCCCCOc4ccc5c(Nc6cccc(F)c6)ccnc5c4)ccc23)c1`: the IC50 was 4.34 µM in the experiment with HeLa [1]; 45.4 µM in the experiment with HepG2; 4.98 µM with MCF7; 2.44 µM in the experiment with BGC-823; 3.28 µM in the experiment with HCT-116; 2.55 µM in the experiment on A549.

As for `CN1CCN(c2ccnc3cc(OCCCCOc4ccc5c(N6CCN(C)CC6)ccnc5c4)ccc23)CC1`, the IC50 with HeLa [1] was 146 µM; in the experiment on HepG2, greater than 200 µM; with MCF7 it was greater than 200 µM; in the experiment on BGC-823 it was 136 µM; with HCT-116 it was greater than 200 µM; with A549, 139 µM.

Regarding `FC(F)(F)Oc1cccc(Nc2ccnc3cc(OCCCCCOc4ccc5c(Nc6cccc(OC(F)(F)F)c6)ccnc5c4)ccc23)c1`, the IC50 is 14.3 µM with HeLa [1]; 24.8 µM in the experiment with HepG2; 38 µM with MCF7; 3.35 µM with BGC-823; 17.2 µM with HCT-116; 0.78 µM with A549.

On to `COC(=O)c1ccc([C@H]2c3[nH]c4ccccc4c3C[C@H](C(=O)OC)N2C(=O)CCl)cc1`, for which the result in the experiment on Ca-Ski and in the experiment with HeLa [3] was Active.

Take `COc1cccc(Nc2ccnc3cc(OCCCCCCOc4ccc5c(Nc6cccc(OC)c6)ccnc5c4)ccc23)c1`: the 50% inhibitory concentration (IC50) in the experiment on HeLa [1] was 4.07 µM; in the experiment with HepG2, 31.9 µM; with MCF7, 5.55 µM; with BGC-823, 3.58 µM; in the experiment with HCT-116, 6.99 µM; with A549 it was 6.15 µM.

Regarding `FC(F)(F)Oc1cccc(Nc2ccnc3cc(OCCCCCCOc4ccc5c(Nc6cccc(OC(F)(F)F)c6)ccnc5c4)ccc23)c1`, the IC50 is 28.3 µM in the experiment on HeLa [1]; 44.8 µM in the experiment with HepG2; greater than 200 µM with MCF7; 89.4 µM in the experiment on BGC-823; 10.3 µM with HCT-116; 0.31 µM with A549.

As to `COc1cccc(Nc2ccnc3cc(OCCCCOc4ccc5c(Nc6cccc(OC)c6)ccnc5c4)ccc23)c1`, the IC50 with HeLa [1] was 48.3 µM; in the experiment on HepG2, greater than 200 µM; in the experiment on MCF7, 47.2 µM; with BGC-823, 63.8 µM; in the experiment with HCT-116, greater than 200 µM; in the experiment on A549 it was 142 µM.

In the case of `CN1CCN(c2ccnc3cc(OCCCCCOc4ccc5c(N6CCN(C)CC6)ccnc5c4)ccc23)CC1`, the IC50 in the experiment on HeLa [1] was found to be 30.9 µM; in the experiment with HepG2 it was 35.1 µM; with MCF7, 6.03 µM; with BGC-823 it was 3.55 µM; in the experiment on HCT-116, 3.85 µM; with A549, 26 µM.

Take `CN1CCN(c2ccnc3cc(OCCCCCCOc4ccc5c(N6CCN(C)CC6)ccnc5c4)ccc23)CC1`: the IC50 amounted to 26.1 µM with HeLa [1]; 43.3 µM in the experiment on HepG2; 44.3 µM in the experiment on MCF7; 50.2 µM in the experiment on BGC-823; 42.3 µM with HCT-116; 0.33 µM in the experiment on A549.

For `Fc1cccc(Nc2ccnc3cc(OCCCCCCOc4ccc5c(Nc6cccc(F)c6)ccnc5c4)ccc23)c1`, the IC50 in the experiment on HeLa [1] is 0.94 µM; in the experiment with HepG2 it was 0.36 µM; in the experiment with MCF7, greater than 200 µM; in the experiment on BGC-823, 9.82 µM; in the experiment with HCT-116, 6.64 µM; with A549, 0.75 µM.

With `FC(F)(F)Oc1cccc(Nc2ccnc3cc(OCCCCOc4ccc5c(Nc6cccc(OC(F)(F)F)c6)ccnc5c4)ccc23)c1`, the IC50 with HeLa [1] was 14.1 µM; with HepG2 it was 2.75 µM; in the experiment with MCF7, greater than 200 µM; in the experiment on BGC-823, 66 µM; in the experiment on HCT-116 it was 13.5 µM; in the experiment with A549, 2.75 µM.
